Activity, inhibition and IC50 data for three molecules are collected here from ChEMBL document CHEMBL4038296, “A bromopyrrole-containing diterpene alkaloid from the Okinawan marine sponge Agelas nakamurai activates the insulin pathway in Huh-7 human hepatoma cells by inhibiting protein tyrosine phosphatase 1B” (Bioorg Med Chem Lett, 2017).

Activity calls are given as the source filed them. The rule behind the calls is not given here.

The target of experiment [1] is RAC-alpha serine/threonine-protein kinase (Homo sapiens) (UniProt P31749). Put plainly: Induction of Akt phosphorylation in human Huh7 cells up to 50 uM measured after 2 hrs by Western blot method. It counts as cell-based.
For experiment [2] the target is unchanged. Put plainly: Induction of Akt phosphorylation in human Huh7 cells measured after 2 hrs by Western blot method. In kind it is cell-based. In general terms: A western blot detects proteins with antibodies after separation by electrophoresis.
In experiment [3] the target is T1, Tyrosine-protein phosphatase non-receptor type 1 (Homo sapiens) (UniProt P18031).
T1 sequence (whole entry): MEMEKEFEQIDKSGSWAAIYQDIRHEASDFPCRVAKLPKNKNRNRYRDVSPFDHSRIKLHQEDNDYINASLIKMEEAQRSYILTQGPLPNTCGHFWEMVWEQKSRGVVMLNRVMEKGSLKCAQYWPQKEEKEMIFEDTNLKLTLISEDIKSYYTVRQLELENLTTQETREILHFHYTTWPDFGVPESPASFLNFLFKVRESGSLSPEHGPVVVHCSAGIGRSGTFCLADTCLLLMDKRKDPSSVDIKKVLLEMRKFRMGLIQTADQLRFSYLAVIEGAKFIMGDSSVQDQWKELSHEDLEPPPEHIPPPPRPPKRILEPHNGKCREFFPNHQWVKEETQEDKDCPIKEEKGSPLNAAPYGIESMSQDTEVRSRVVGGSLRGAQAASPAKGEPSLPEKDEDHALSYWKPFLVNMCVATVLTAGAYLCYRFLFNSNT
Put plainly: Inhibition of PTP1B in human Huh7 cells assessed as increase in insulin-stimulated Akt phosphorylation preincubated for 1 to 2 hrs followed by insulin addition measured after 5 mins by Western blot method. In kind it is cell-based.

In experiment [4] the target is T2, Tyrosine-protein phosphatase non-receptor type 1 (Homo sapiens, UniProt P18031).
T2 sequence (P18031 whole entry): T1 sequence (whole entry)
Put plainly: Inhibition of human recombinant PTP1B (1 to 322 residues) expressed in Escherichia coli using pNPP as substrate preincubated for 10 mins followed by substrate addition measured after 30 mins.

The target in experiment [5] is Dual specificity protein phosphatase 3 (Homo sapiens, UniProt P51452). Description: Inhibition of human recombinant VHR expressed in Escherichia coli using pNPP as substrate preincubated for 10 mins followed by substrate addition measured after 30 mins.
Experiment [6] has as its target T3, Tyrosine-protein phosphatase non-receptor type 2 (Homo sapiens, UniProt P17706).
T3 sequence (P17706 whole entry): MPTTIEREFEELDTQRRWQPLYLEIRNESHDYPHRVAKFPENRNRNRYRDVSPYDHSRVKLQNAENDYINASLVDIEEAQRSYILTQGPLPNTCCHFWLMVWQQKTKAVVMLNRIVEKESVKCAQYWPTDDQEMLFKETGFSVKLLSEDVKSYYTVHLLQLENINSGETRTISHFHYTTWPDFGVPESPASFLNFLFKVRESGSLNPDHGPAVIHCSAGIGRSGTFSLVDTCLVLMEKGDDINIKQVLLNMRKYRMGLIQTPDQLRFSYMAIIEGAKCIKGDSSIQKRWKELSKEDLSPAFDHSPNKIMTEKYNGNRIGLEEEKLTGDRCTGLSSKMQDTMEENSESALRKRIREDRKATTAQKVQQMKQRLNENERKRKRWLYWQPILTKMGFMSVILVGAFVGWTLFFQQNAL
Put plainly: Inhibition of human recombinant TCPTP (1 to 317 residues) expressed in Escherichia coli using pNPP as substrate preincubated for 10 mins followed by substrate addition measured after 30 mins.

Experiment [7] deals with T4, Receptor-type tyrosine-protein phosphatase C (Homo sapiens, UniProt P08575).
T4 sequence (P08575 whole entry): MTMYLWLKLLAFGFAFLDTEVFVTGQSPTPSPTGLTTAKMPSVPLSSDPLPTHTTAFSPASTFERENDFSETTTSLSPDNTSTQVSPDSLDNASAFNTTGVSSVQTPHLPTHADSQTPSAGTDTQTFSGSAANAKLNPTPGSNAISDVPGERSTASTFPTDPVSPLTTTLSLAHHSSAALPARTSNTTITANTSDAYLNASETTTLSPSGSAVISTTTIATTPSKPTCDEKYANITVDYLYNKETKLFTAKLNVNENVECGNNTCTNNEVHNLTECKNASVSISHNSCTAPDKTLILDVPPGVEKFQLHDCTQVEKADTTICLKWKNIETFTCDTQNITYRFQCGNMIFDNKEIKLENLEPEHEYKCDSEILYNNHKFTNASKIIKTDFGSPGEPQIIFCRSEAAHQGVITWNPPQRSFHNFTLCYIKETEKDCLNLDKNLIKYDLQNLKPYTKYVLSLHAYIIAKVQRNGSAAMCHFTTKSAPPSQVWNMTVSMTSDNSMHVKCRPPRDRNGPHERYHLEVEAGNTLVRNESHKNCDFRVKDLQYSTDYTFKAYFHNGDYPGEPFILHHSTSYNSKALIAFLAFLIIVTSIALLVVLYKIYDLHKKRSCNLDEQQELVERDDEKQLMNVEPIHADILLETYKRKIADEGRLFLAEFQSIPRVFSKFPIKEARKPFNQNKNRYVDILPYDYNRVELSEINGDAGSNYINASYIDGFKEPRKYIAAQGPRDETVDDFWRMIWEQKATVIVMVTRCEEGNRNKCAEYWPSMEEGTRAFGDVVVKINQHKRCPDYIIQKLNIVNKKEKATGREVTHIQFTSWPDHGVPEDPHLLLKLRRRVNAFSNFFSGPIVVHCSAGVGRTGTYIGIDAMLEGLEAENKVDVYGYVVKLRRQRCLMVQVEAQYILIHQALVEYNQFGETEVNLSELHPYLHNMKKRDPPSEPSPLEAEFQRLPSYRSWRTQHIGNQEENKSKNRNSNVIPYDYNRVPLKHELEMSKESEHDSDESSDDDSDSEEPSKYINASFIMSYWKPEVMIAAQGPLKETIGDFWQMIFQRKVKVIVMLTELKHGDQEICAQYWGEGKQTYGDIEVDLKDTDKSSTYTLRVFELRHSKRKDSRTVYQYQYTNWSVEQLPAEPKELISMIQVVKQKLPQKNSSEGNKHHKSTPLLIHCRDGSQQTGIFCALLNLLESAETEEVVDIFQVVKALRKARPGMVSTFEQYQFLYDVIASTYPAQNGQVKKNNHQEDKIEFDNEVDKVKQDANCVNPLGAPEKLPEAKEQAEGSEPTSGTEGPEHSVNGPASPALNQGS
Description: Inhibition of human recombinant CD45 using pNPP as substrate preincubated for 10 mins followed by substrate addition measured after 30 mins.

In experiment [8] the target is RAC-alpha serine/threonine-protein kinase (Homo sapiens) (UniProt P31749). Put plainly: Activation of AKT in human Huh7 cells assessed as increase in insulin-stimulated Akt phosphorylation preincubated for 1 to 2 hrs followed by insulin addition measured after 5 mins by Western blot method. It counts as cell-based.

RAC-alpha serine/threonine-protein kinase (Homo sapiens), sequence (P31749 whole entry): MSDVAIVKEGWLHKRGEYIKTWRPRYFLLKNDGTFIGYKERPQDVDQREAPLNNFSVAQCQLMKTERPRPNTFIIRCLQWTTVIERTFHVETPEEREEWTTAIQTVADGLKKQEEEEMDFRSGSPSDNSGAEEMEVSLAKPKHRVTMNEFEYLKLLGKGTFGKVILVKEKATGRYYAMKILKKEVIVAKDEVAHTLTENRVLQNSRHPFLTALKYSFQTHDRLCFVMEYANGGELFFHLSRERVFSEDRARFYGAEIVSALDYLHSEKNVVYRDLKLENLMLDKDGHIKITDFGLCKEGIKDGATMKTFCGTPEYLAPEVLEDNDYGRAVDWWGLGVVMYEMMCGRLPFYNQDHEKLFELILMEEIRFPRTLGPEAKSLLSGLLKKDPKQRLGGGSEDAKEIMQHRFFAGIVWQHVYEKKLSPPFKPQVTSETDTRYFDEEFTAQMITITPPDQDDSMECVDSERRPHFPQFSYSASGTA
Dual specificity protein phosphatase 3, sequence (P51452 whole entry): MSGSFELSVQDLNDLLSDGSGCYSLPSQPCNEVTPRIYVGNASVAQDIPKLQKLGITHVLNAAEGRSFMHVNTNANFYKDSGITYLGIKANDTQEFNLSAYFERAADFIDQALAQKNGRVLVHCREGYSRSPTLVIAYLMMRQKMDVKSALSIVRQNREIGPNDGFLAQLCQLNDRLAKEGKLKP

As to `C/C(=C\Cn1c[n+](C)c2ncnc(N)c21)CC[C@]1(C)[C@@H](C)CC[C@@]2(C)C(COC(=O)c3cc(Br)c[nH]3)=CCC[C@@H]12`, the outcome in experiment [1] was inactive. The Activity result in experiment [2] is “Dose-dependent effect”. Moreover, the inhibition result in experiment [3] is “Dose-dependent effect”.

For the molecule `C/C(=C\C[n+]1cn(C)c2ncnc(N)c21)CC[C@]1(C)[C@@H](C)CC[C@@]2(C)C(COC(=O)c3cc(Br)c[nH]3)=CCC[C@@H]12`, the IC50 was 15 µM in experiment [4], 13 µM in experiment [5], > 16 µM in experiment [6] and > 16 µM in experiment [7].

Turning to `C/C(=C\Cn1c[n+](C)c2ncnc(N)c21)CC[C@]1(C)[C@@H](C)CC[C@@]2(C)C(COC(=O)c3ccc[nH]3)=CCC[C@@H]12`, the result in experiment [1] was inactive. Further, the IC50 in experiment [4], in experiment [5], in experiment [6] and in experiment [7] was > 19 µM throughout. Moreover, the Activity entry in experiment [2] and in experiment [8] was “Dose-dependent effect” in each case.

As usually defined, the IC50 is the concentration needed to halve the response being measured.
